Consider two molecules from patent US10617664B2, “Brain derived PPARα ligands” (Rush University Medical Center, priority 2015, dated 2020).

What all share (assay type): cell-based, mouse
Test [1] deals with PPRE-driven luciferase activity. The test is described as follows: PPRE-luciferase assay in Pparb-null astrocytes with PPARγ antagonist GW9662. To be noted: Pparb-null astrocytes. How it is done: FIG. 16A) Pparb-null primary astrocytes plated at 60-70% confluence in 12-well plates were transfected with 0.25 μg of tkPPREx3-Luc (a PPRE-dependent luciferase reporter construct). Twenty-four hours after transfection, cells were treated with different concentrations of GW9662 for 30 min followed by stimulation with rosiglitazone. After 4 h, luciferase activities were assayed. […] After transfection, cells were also treated with GW9662 followed by stimulation with OCT (FIG. 16B), HEX (FIG. 16C) and HMB (FIG. 16D).
These astrocytes were pre-treated with PPARγ-antagonist GW9662 to nullify the involvement of PPARγ in reporter assay.

Test [2] deals with Ppara-null hippocampal neurons. The test is described as follows: Dendritic spine density (phalloidin) in transduced Ppara-null hippocampal neurons. To be noted: lenti-FL-Ppara. How it is done: Ppara-null hippocampal neurons were transduced with lentivirions containing GFP (vector), FL-Ppara, and Y464D-Ppara for 48 h followed by treatment with vehicle (DMSO) (FIG. 11A), OCT (FIG. 11B), HEX (FIG. 11C), HMB (FIG. 11D), and WY14643 (FIG. 11E) for 24 h. Then neurons were stained for phalloidin to measure spine density. FIG. 11F) A representative picture of dendrite with spines (Cyan color) used for counting area of spine heads. Area of spine heads (FIG. 11G) and number of spines (FIG. 11H) in 10 μm of dendrites. Results are mean±SEM of 5 neurons per group. ^ap<0.05 vs vector only; ^bp<0.05 vs FL-Ppara. AMPA-driven calcium influx was measured in OCT (red), HEX (green) and HMB (purple)-treated Ppara-null hippocampal neurons transduced with lentivirions containing FL-Ppara (FIG. 11I), Y314D-Ppara (FIG. 11J), Y464D-Ppara (FIG. 11K), and Y314D/Y464D-Ppara (FIG. 11L). All neurons were treated with 50 μM of NMDA receptor antagonist N20C to inhibit passive calcium flow through NMDA receptor. (FIG. 11M-P) Similarly NMDA-driven calcium influx was measured in the lentivius-infected Ppara-null hippocampal neurons in the presence of different endogenous ligands. In these cases, Naspm-HCl was treated to stop the passive flow of calcium currents through AMPA receptor. Results are mean of three independent experiments.
Dendritic spines are the crucial mediators of synaptic transmission among central neurons and often serve as a primary candidate for the long term morphological substrates of neuronal plasticity^12,13. Therefore, the effect of these ligands on the increase of spine density in cultured hippocampal neurons was studied. Briefly, mouse Ppara-null hippocampal neurons were transduced with lentivirus containing empty vector, FL-Ppara, or Y464D-Ppara for a week followed by the treatment with OCT, HEX, and HMB for four more days. After that, neurons were labelled with phalloidin to monitor the spine density. […] This observation was further validated by measuring the area of spine heads (FIG. 11F-G) and number of spines (FIG. 11H) in HEX, OCT, and HMB-treated Ppara-null neurons. HEX (FIG. 17G-H), OCT (FIG. 17I-J) and HMB (FIG. 17K-L) stimulated the expression of CREB in Ppara-null hippocampal neurons that were transduced with lentivirons containing the FL-Ppara gene.
Hippocampal regions were dissected from 18-day-old embryonic fetus as described elsewhere (PMID: 25007337), combined and plated in poly-D-lysine coated plate for another 2-3 weeks for branching. After that, these neurons were transduced with GFP-containing lentivirions for 2 d. Neurons were stained with Dylight-554-conjugated phalloidin (Cat #21834; Thermofisher) as per manufactures protocol and visualized in fluorescence microscope. […]

Test [3] concerns PPRE-driven luciferase activity. The test is described as follows: PPRE-luciferase assay in Ppara-null astrocytes transduced with Ppara constructs. The settings on record: Ppara-null astrocytes (empty vector). As for the experimental part: Astrocytes plated at 60-70% confluence were transfected with tk-PPREx3-Luc, a PPRE-dependent luciferase reporter construct. After 24 h of transfection, cells were treated with different concentrations of HEX (FIG. 10A), OCT (FIG. 10B) and HMB (FIG. 10C) for 4 h followed by monitoring luciferase activity. Under similar experimental condition, MTT was performed to understand the effect of these ligands on cell viability (FIG. 10D, HEX; FIG. 10E, OCT; FIG. 10F, HMB). Results are mean±SD of three independent experiments. ^ap<0.001 vs. control. Ppara-null astrocytes were transduced with lentivirions containing empty vector (FIG. 10G), FL-Ppara (FIG. 10H), Y314D-Ppara (FIG. 10I), Y464D-Ppara (FIG. 10J), and Y314D/Y464D-Ppara (FIG. 10K) for 48 h followed by transfection with tk-PPREx3-Luc. After 24 h of transfection, cells were treated with different doses of HEX, OCT and HMB for 4 h followed by monitoring luciferase activity. PPRE luciferase activity was assayed in Ppara-null astrocytes transduced with lentivirions containing empty vector (FIG. 10L), FL-Ppara (FIG. 10M), Y314D-Ppara (FIG. 10N), Y464D-Ppara (FIG. 10O), and Y314D/Y464D-Ppara (FIG. 10P) after treatment with different doses of WY14643, fenofibrate, and clofibrate. PPRE luciferase activity was assayed in primary hippocampal neurons transduced with lentivirions containing empty vector (FIG. 10Q), FL-Ppara (FIG. 10R), Y314D-Ppara (FIG. 10S), Y464D-Ppara (FIG. 10T), and Y314D/Y464D-Ppara (FIG. 10U) after treatment with different doses of HEX, OCT and HMB. Results are mean±SD of three independent experiments. ^ap<0.001 vs. control.

`O=C(Nc1ccccc1)c1cc([N+](=O)[O-])ccc1Cl` [GW9662, reference compound]: in test [1], the “effect on rosiglitazone-mediated increase in PPRE-luciferase activity” value is listed as “Inhibition”.

Take `Cc1cccc(Nc2cc(Cl)nc(SCC(=O)O)n2)c1C` [WY14643, reference compound]: the density of spines entry in test [2] was “stimulated”. In addition, the PPRE-driven luciferase activity result in test [3] was “unable to induce”.
